In patent US20150126467A1, “USE OF ALGINATE OLIGOMERS TO ENHANCE THE EFFECTS OF ANTIFUNGAL AGENTS” (AlgiIPharma AS, priority 2011, published 2015):
≈ marks a conversion by molar mass, not a printed value. Where two headings read alike, the source gives them in different places.

Experiments:
Assay type in all cases: cell-based
[1] = tested on: Cryptococcus neoformans CCUG 23451; assay: Robotic MIC assay, Cryptococcus neoformans (Example 6); conditions: for MIC: Cryptococcus neoformans, read-out: Minimum Inhibitory Concentration (MIC)
Protocol: Cryptococcus sp. was grown at 30° C. for 96 h on YM-agar. Spores and aerial mycelium was cut out from the agar, suspended in 1 ml YM-broth and dispersed with glass beads (1 mm) in a mini bead beater for 2 min. The suspension was added glycerol to 10% and frozen at −80° C. Each batch of frozen stock culture was then characterized in separate growth experiments using Mueller-Hinton and RPMI to determine the minimum amount of inoculum giving satisfactory growth after 48 h under the conditions relevant for the MIC assay. This inoculum procedure is used in order to reduce day to day variation in bioassays.
Robotic minimum inhibitory concentration (MIC) assay was performed as follows. OligoG CF-5/20 was dissolved in medium (Mueller-Hinton, RPMI with 2% glucose, Sabouraud or YM) to 1.25 times of the desired assay concentrations (2, 6 and 10%). […].
Two-fold serial dilutions of antifungal agents were made in medium with different concentrations of OligoG CF-5/20, and the solutions were placed in four parallel wells in Nunc 384-well micro plates (30 μl per well in Nunc 242757 microplates). A group of 8 wells with no addition of antifungal agents for each OligoG CF-5/20 concentration was included on each micro plate as growth reference. Each well in the 384-well assay plates was added 7.5 μl of the medium innoculated with frozen stock culture of the relevant strains.
The microplates were placed in plastic bags and incubated without shaking at 34° C. The optical density at 600 nm in the microwells was measured after certain time points from 24 h to 96 h of incubation. […]

Candida albicans = assay: Robotic MIC assay with asthma/COPD medicaments (Example 5); conditions: Mueller-Hinton broth; for MIC: Candida albicans, 24 h
Protocol: (§1) A robotic MIC Assay was performed as follows. OligoG CF-5/20 were dissolved in medium (Mueller-Hinton broth or M19 broth depending on experiment) to 1.25 times of the desired assay concentrations (2, 6 and 10%). The antifungal agents under test were dissolved in medium without OligoG CF-5/20 and in medium with OligoG CF-5/20 at a concentration of 1.25 times the highest desired assay concentrations. For experiments where the effect of adding different concentrations of Na^+ was investigated, NaCl was dissolved in medium to the desired concentrations (10, 30 and 50 mM).
(§2) Two-fold serial dilutions of antifungal agents were made in medium with different concentrations of OligoG CF-5/20, and the solutions were placed in four parallel wells in Nunc 384-well micro plates (30 μl per well in Nunc 242757 microplates). A group of 8 wells with no addition of antifungal agents for each OligoG CF-5/20 concentration was included on each microplate as growth reference. To each well in the 384-well assay plates was added 7.5 μl of medium inoculated with a frozen stock culture of Candida albicans (strain CCUG 39343).
(§3) The micro plates were placed in plastic bags and incubated without shaking at 34° C. The optical density at 600 nm in the microwells was measured after approximately 13, 18, 24 and 34 hours of incubation, and the relative growth yield in each well was calculated based on the growth in the reference groups.
The robotic assay described in Example 1 was employed in this Example. […] The concentration utilized for the different components were based on information from Manocha et al. (2006).
In this assay only Mueller-Hinton broth was used since this is the medium specified for standardized MIC assays (Jorgensen et al., 1999).

[2] = tested on: Candida albicans, CCUG 39343; assay: Robotic MIC assay (Example 1); conditions: for MIC: Candida albicans, CCUG39343, 24 h, 24 hours, read-out: Minimum Inhibitory Concentration (MIC); for reduction in MIC values: comparing 0 and 10% G-block
Protocol: as §1, §2
The frozen stock culture was prepared by growing the Candida strain at 34° C. for 48 h on YM-agar. 1-3 colonies from the plates were grown in 6 ml YM-broth at 34° C. for 14 h before freezing in 6% glycerol at −80° C. Each batch of frozen stock culture was then characterized in separate growth experiments using Mueller-Hinton or M19 broth to determine the minimum amount of inoculum giving satisfactory growth after 48 h under the conditions relevant for the MIC assay. This inoculation procedure is used in order to reduce day to day variation in bioassays.
as §3

C[C@@H]1[C@H](O)[C@@H](C)/C=C/C=C/C=C/C=C/C=C/C=C/C=C/[C@H](O[C@@H]2O[C@H](C)[C@@H](O)[C@H](N)[C@@H]2O)C[C@@H]2O[C@](O)(C[C@@H](O)C[C@@H](O)[C@H](O)CC[C@@H](O)C[C@@H](O)CC(=O)O[C@H]1C)C[C@H](O)[C@H]2C(=O)O [Amphotericin B, amphotericin B]
MIC ([1]; CCUG23451, 72 h, RPMI 2% GLU, 0% OligoG, 72 hours): > 1.5 µg/mL | MIC ([1]; CCUG23451, 72 h, RPMI 2% GLU, 2% OligoG, 72 hours): 1.5 µg/mL (≈ 1.62 µM) | MIC ([1]; CCUG23451, 72 h, RPMI 2% GLU, 6% OligoG, 72 hours): 0.75 µg/mL (≈ 0.812 µM) | MIC ([1]; CCUG23451, 72 h, Sabouraud, 0% OligoG, 72 hours): 0.188 µg/mL (≈ 0.203 µM) | MIC ([1]; CCUG23451, 72 h, Sabouraud, 2% OligoG, 72 hours): 0.0938 µg/mL (≈ 0.101 µM) | MIC ([1]; CCUG23451, 72 h, Sabouraud, 6% OligoG, 72 hours): 0.0117 µg/mL (≈ 0.0127 µM) | MIC ([1]; CCUG23451, 72 h, YM, 0% OligoG, 72 hours): > 1.5 µg/mL | MIC ([1]; CCUG23451, 72 h, YM, 2% OligoG, 72 hours): 1.5 µg/mL (≈ 1.62 µM) | MIC ([1]; CCUG23451, 96 h, MH, 0% OligoG, 96 hours): 1.5 µg/mL (≈ 1.62 µM) | MIC ([1]; CCUG23451, 96 h, MH, 2% OligoG, 96 hours): 0.188 µg/mL (≈ 0.203 µM) | MIC ([1]; CCUG23451, 96 h, RPMI 2% GLU, 0% OligoG, 96 hours): > 1.5 µg/mL | MIC ([1]; CCUG23451, 96 h, RPMI 2% GLU, 2% OligoG, 96 hours): > 1.5 µg/mL | MIC ([1]; CCUG23451, 96 h, RPMI 2% GLU, 6% OligoG, 96 hours): 1.5 µg/mL (≈ 1.62 µM) | MIC ([1]; CCUG23451, 96 h, RPMI 2% GLU, 10% OligoG, 96 hours): 0.75 µg/mL (≈ 0.812 µM) | MIC ([1]; CCUG23451, 96 h, Sabouraud, 0% OligoG, 96 hours): 0.375 µg/mL (≈ 0.406 µM) | MIC ([1]; CCUG23451, 96 h, Sabouraud, 2% OligoG, 96 hours): 0.0938 µg/mL (≈ 0.101 µM) | MIC ([1]; CCUG23451, 96 h, Sabouraud, 6% OligoG, 96 hours): 0.0234 µg/mL (≈ 0.0253 µM) | MIC ([1]; CCUG23451, 96 h, YM, 0% OligoG, 96 hours): > 1.5 µg/mL | MIC ([1]; CCUG23451, 96 h, YM, 2% OligoG, 96 hours): 1.5 µg/mL (≈ 1.62 µM) | effect on MIC when OligoG is added to the medium ([1]; media: RPMI with 2% glucose, MH, Sabouraud, YM): reduction in MIC in all media tested | MIC (Candida albicans; no medicament added, G-block 0%): 0.0938 µg/mL (≈ 0.102 µM) | MIC (Candida albicans; no medicament added, G-block 2%): 0.0938 µg/mL (≈ 0.102 µM) | MIC (Candida albicans; no medicament added, G-block 6%): 0.0469 µg/mL (≈ 0.0508 µM) | MIC (Candida albicans; no medicament added, G-block 10%): 0.0234 µg/mL (≈ 0.0253 µM) | MIC (Candida albicans; with Budesonide 0.01 mM, G-block 0%): 0.0938 µg/mL (≈ 0.102 µM) | MIC (Candida albicans; with Budesonide 0.01 mM, G-block 2%): 0.0938 µg/mL (≈ 0.102 µM) | MIC (Candida albicans; with Budesonide 0.01 mM, G-block 6%): 0.0469 µg/mL (≈ 0.0508 µM) | MIC (Candida albicans; with Budesonide 0.01 mM, G-block 10%): 0.0469 µg/mL (≈ 0.0508 µM) | MIC (Candida albicans; with Formoterol 0.5 mM (2% DMSO), G-block 0%): 0.0469 µg/mL (≈ 0.0508 µM) | MIC (Candida albicans; with Formoterol 0.5 mM (2% DMSO), G-block 2%): 0.0469 µg/mL (≈ 0.0508 µM) | MIC (Candida albicans; with Formoterol 0.5 mM (2% DMSO), G-block 6%): 0.0234 µg/mL (≈ 0.0253 µM) | MIC (Candida albicans; with Formoterol 0.5 mM (2% DMSO), G-block 10%): 0.0117 µg/mL (≈ 0.0127 µM) | MIC (Candida albicans; with Ipratropium bromide 0.01 mM, G-block 0%): 0.0938 µg/mL (≈ 0.102 µM) | MIC (Candida albicans; with Ipratropium bromide 0.01 mM, G-block 2%): 0.0469 µg/mL (≈ 0.0508 µM) | MIC (Candida albicans; with Ipratropium bromide 0.01 mM, G-block 6%): 0.0234 µg/mL (≈ 0.0253 µM) | MIC (Candida albicans; with Ipratropium bromide 0.01 mM, G-block 10%): 0.0117 µg/mL (≈ 0.0127 µM) | MIC (Candida albicans; with Ipratropium bromide 1 mM, G-block 0%): 0.188 µg/mL (≈ 0.203 µM) | MIC (Candida albicans; with Ipratropium bromide 1 mM, G-block 2%): 0.0938 µg/mL (≈ 0.102 µM) | MIC (Candida albicans; with Ipratropium bromide 1 mM, G-block 6%): 0.0469 µg/mL (≈ 0.0508 µM) | MIC (Candida albicans; with Ipratropium bromide 1 mM, G-block 10%): 0.0234 µg/mL (≈ 0.0253 µM) | MIC (Candida albicans; with Salbutamol 0.01 mM, G-block 0%): 0.0469 µg/mL (≈ 0.0508 µM) | MIC (Candida albicans; with Salbutamol 0.01 mM, G-block 2%): 0.0469 µg/mL (≈ 0.0508 µM) | MIC (Candida albicans; with Salbutamol 0.01 mM, G-block 6%): 0.0234 µg/mL (≈ 0.0253 µM) | MIC (Candida albicans; with Salbutamol 0.01 mM, G-block 10%): 0.0117 µg/mL (≈ 0.0127 µM) | MIC (Candida albicans; with Salbutamol 1 mM, G-block 0%): 0.0469 µg/mL (≈ 0.0508 µM) | MIC (Candida albicans; with Salbutamol 1 mM, G-block 2%): 0.0469 µg/mL (≈ 0.0508 µM) | MIC (Candida albicans; with Salbutamol 1 mM, G-block 6%): 0.0234 µg/mL (≈ 0.0253 µM) | MIC (Candida albicans; with Salbutamol 1 mM, G-block 10%): 0.0117 µg/mL (≈ 0.0127 µM) | reduction in MIC values (Candida albicans; addition of 10% OligoG CF-5/20 compared to without OligoG CF-5/20): 4 × | MIC ([2]; M19, NaCl 0 mM): 1.2 µg/mL (≈ 1.3 µM) | MIC ([2]; M19, NaCl 10 mM): 0.3 µg/mL (≈ 0.325 µM) | MIC ([2]; M19, NaCl 30 mM): 0.3 µg/mL (≈ 0.325 µM) | MIC ([2]; M19, NaCl 50 mM): 0.3 µg/mL (≈ 0.325 µM) | MIC ([2]; M19, OligoG CF 5/20 0%): 1.2 µg/mL (≈ 1.3 µM) | MIC ([2]; M19, OligoG CF 5/20 2%): 0.3 µg/mL (≈ 0.325 µM) | MIC ([2]; M19, OligoG CF 5/20 6%): 0.075 µg/mL (≈ 0.0812 µM) | MIC ([2]; M19, OligoG CF 5/20 10%): 0.0375 µg/mL (≈ 0.0406 µM) | MIC ([2]; Mueller-Hinton, NaCl 0 mM): 0.15 µg/mL (≈ 0.162 µM) | MIC ([2]; Mueller-Hinton, NaCl 10 mM): 0.15 µg/mL (≈ 0.162 µM) | MIC ([2]; Mueller-Hinton, NaCl 30 mM): 0.15 µg/mL (≈ 0.162 µM) | MIC ([2]; Mueller-Hinton, NaCl 50 mM): 0.15 µg/mL (≈ 0.162 µM) | MIC ([2]; Mueller-Hinton, OligoG CF 5/20 0%): 0.15 µg/mL (≈ 0.162 µM) | MIC ([2]; Mueller-Hinton, OligoG CF 5/20 2%): 0.15 µg/mL (≈ 0.162 µM) | MIC ([2]; Mueller-Hinton, OligoG CF 5/20 6%): 0.0375 µg/mL (≈ 0.0406 µM) | MIC ([2]; Mueller-Hinton, OligoG CF 5/20 10%): 0.0094 µg/mL (≈ 0.0102 µM) | reduction in MIC values ([2]; M19): 32 × | reduction in MIC values ([2]; Mueller-Hinton): 16 × | effect of addition of OligoG CF-5/20 on MIC values ([2]; both media tested (M19, Mueller-Hinton)): reduction in MIC values
